Activity calls are given as the source filed them. The calls are words filed in the database; no cut-off is given here. Peptide text beside a SMILES is read from it. * marks the point of attachment. Pyrrole2CO(5-CO-guanidino) = N=C(N)NC(=O)c1ccc(C(=O)*)[nH]1
Assays:
[1] = Aggregation of the compound in water at 25 to 95 degC by UV-Visible titration method; format: physicochemical; settings: buffer
[2] = Binding affinity to poly(dG-dC)2 DNA (unknown origin) in pH 7.4 sodium cacodylate buffer by ITC
[3] = Aqueous solubility of the compound in water; format: physicochemical; settings: buffer
[4] = Binding affinity to poly(rA).(rU) RNA duplex (unknown origin) in pH 7.4 sodium cacodylate buffer assessed as change in melting temperature at peptide to polynucleotide ratio of 0.3 by thermal denaturation assay
[5] = Chemical stability in water at +8 degC; format: physicochemical; settings: buffer
[6] = Binding affinity to poly(dA-dT)2 DNA (unknown origin) in pH 7.4 sodium cacodylate buffer assessed as change in melting temperature at peptide to polynucleotide ratio of 0.3 by thermal denaturation assay
[7] = Binding affinity to poly(rA).(rU) RNA duplex (unknown origin) in pH 7.4 sodium cacodylate buffer by ITC
Bos taurus [8] = organism: Bos taurus; assay: Binding affinity to calf thymus duplex DNA in pH 7.4 sodium cacodylate buffer by ITC
[9] = Binding affinity to poly(dA-dT)2 DNA (unknown origin) in pH 7.4 sodium cacodylate buffer assessed as change in melting temperature at peptide to polynucleotide ratio of 0.5 by thermal denaturation assay
[10] = Binding affinity to poly(dA-dT)2 DNA (unknown origin) in pH 7.4 sodium cacodylate buffer by ITC
[11] = Binding affinity to poly(rA).(rU) RNA duplex (unknown origin) in pH 7.4 sodium cacodylate buffer assessed as change in melting temperature at peptide to polynucleotide ratio of 0.5 by thermal denaturation assay
Bos taurus [12] = organism: Bos taurus; assay: Binding affinity to calf thymus duplex DNA in pH 7.4 sodium cacodylate buffer assessed as change in melting temperature at peptide to polynucleotide ratio of 0.5 by thermal denaturation assay
Bos taurus [13] = organism: Bos taurus; assay: Binding affinity to calf thymus duplex DNA in pH 7.4 sodium cacodylate buffer assessed as change in melting temperature at peptide to polynucleotide ratio of 0.3 by thermal denaturation assay
[14] = Binding affinity to poly(dA-dT)2 DNA (unknown origin) in pH 7.4 sodium cacodylate buffer at peptide to polynucleotide ratio of 0.1 to 1.1 by CD titration method
Bos taurus [15] = organism: Bos taurus; assay: Binding affinity to calf thymus duplex DNA in pH 7.4 sodium cacodylate buffer at peptide to polynucleotide ratio of 0.1 to 0.5 by CD titration method
Bos taurus [16] = organism: Bos taurus; assay: Binding affinity to calf thymus duplex DNA in pH 7.4 sodium cacodylate buffer by UV-Visible titration method
[17] = Binding affinity to poly(dA-dT)2 DNA (unknown origin) in pH 7.4 sodium cacodylate buffer by fluorimetric titration method
[18] = Binding affinity to poly(dG-dC)2 DNA (unknown origin) in pH 7.4 sodium cacodylate buffer by fluorimetric titration method
[19] = Binding affinity to poly(dA-dT)2 DNA (unknown origin) in pH 7.4 sodium cacodylate buffer at peptide to polynucleotide ratio of <0.4 by CD titration method
[20] = Binding affinity to poly(dG-dC)2 DNA (unknown origin) in pH 7.4 sodium cacodylate buffer at peptide to polynucleotide ratio of 0.1 to 0.6 by CD titration method
[21] = Binding affinity to poly(rA).(rU) RNA duplex (unknown origin) in pH 7.4 sodium cacodylate buffer by fluorimetric titration method
[22] = Binding affinity to poly(dA-dT)2 DNA (unknown origin) in pH 7.4 sodium cacodylate buffer assessed as negative induced band at peptide to polynucleotide ratio of >0.8 by CD titration method
Bos taurus [23] = organism: Bos taurus; assay: Induction of calf thymus duplex DNA aggregation in pH 7.4 sodium cacodylate buffer at 0.3 to 1.5 equiv by dynamic light scattering
Bos taurus [24] = organism: Bos taurus; assay: Induction of calf thymus duplex DNA aggregation in pH 7.4 sodium cacodylate buffer at 0.3 to 0.5 equiv after 5 mins by atomic force microscopic method
[25] = Binding affinity to poly(rA).(rU) RNA duplex (unknown origin) in pH 7.4 sodium cacodylate buffer at peptide to polynucleotide ratio of 0.1 to 0.95 by CD titration method
[26] = Binding affinity to poly(dA-dT)2 DNA (unknown origin) in pH 7.4 sodium cacodylate buffer by UV-Visible titration method
[27] = Binding affinity to poly(dG-dC)2 DNA (unknown origin) in pH 7.4 sodium cacodylate buffer by UV-Visible titration method
[28] = Binding affinity to poly(rA).(rU) RNA duplex (unknown origin) in pH 7.4 sodium cacodylate buffer by UV-Visible titration method
[29] = Binding affinity to poly(dA-dT)2 DNA (unknown origin) in pH 7.4 sodium cacodylate buffer assessed as positive induced CD band at peptide to polynucleotide ratio of 0.4 by CD titration method
[30] = Induction of poly(dG-dC)2 DNA aggregation (unknown origin) in pH 7.4 sodium cacodylate buffer at peptide to polynucleotide ratio of 0.5 by CD titration method
[31] = Binding affinity to poly(rA).(rU) RNA duplex (unknown origin) in pH 7.4 sodium cacodylate buffer assessed as positive induced CD band at peptide to polynucleotide ratio of 0.4 by CD titration method
[32] = Induction of poly(rA).(rU) RNA duplex aggregation (unknown origin) in pH 7.4 sodium cacodylate buffer at peptide to polynucleotide ratio of 0.5 by CD titration method
[33] = Binding affinity to poly(dA-dT)2 DNA (unknown origin) in pH 7.4 sodium cacodylate buffer at 5.35 uM by fluorimetric titration method
Bos taurus [34] = organism: Bos taurus; assay: Binding affinity to calf thymus duplex DNA in pH 7.4 sodium cacodylate buffer assessed as positive induced CD band at peptide to polynucleotide ratio of 0.4 by CD titration method
[35] = Binding affinity to poly(rA).(rU) RNA duplex (unknown origin) in pH 7.4 sodium cacodylate buffer at 5.35 uM by fluorimetric titration method
Bos taurus [36] = organism: Bos taurus; assay: Induction of calf thymus duplex DNA aggregation in pH 7.4 sodium cacodylate buffer at peptide to polynucleotide ratio of 0.5 by CD titration method
[37] = Binding affinity to poly(dG-dC)2 DNA (unknown origin) in pH 7.4 sodium cacodylate buffer at 5.35 uM by fluorimetric titration method
[38] = Induction of poly(dA-dT)2 DNA aggregation (unknown origin) in pH 7.4 sodium cacodylate buffer at peptide to polynucleotide ratio of 0.5 by CD titration method
[39] = Binding affinity to poly(dG-dC)2 DNA (unknown origin) in pH 7.4 sodium cacodylate buffer assessed as positive induced CD band at peptide to polynucleotide ratio of 0.4 by CD titration method
Bos taurus [40] = organism: Bos taurus; assay: Binding affinity to calf thymus duplex DNA in pH 7.4 sodium cacodylate buffer at peptide to polynucleotide ratio of 0.2 to 2.1 by CD titration method
[41] = Binding affinity to poly(dA-dT)2 DNA (unknown origin) in pH 7.4 sodium cacodylate buffer at peptide to polynucleotide ratio of 0.2 to 2.1 by CD titration method
[42] = Binding affinity to poly(rA).(rU) RNA duplex (unknown origin) in pH 7.4 sodium cacodylate buffer at peptide to polynucleotide ratio of 0.2 to 2.4 by CD titration method
[43] = Binding affinity to poly(dG-dC)2 DNA (unknown origin) in pH 7.4 sodium cacodylate buffer at peptide to polynucleotide ratio of 0.2 to 2.4 by CD titration method
[44] = Binding affinity to poly(dA-dT)2 DNA (unknown origin) in pH 7.4 sodium cacodylate buffer assessed as positive-negative bisignate ICD band at peptide to polynucleotide ratio of 0.1 to 1.7 by CD titration method
[45] = Binding affinity to poly(dG-dC)2 DNA (unknown origin) in pH 7.4 sodium cacodylate buffer assessed as positive-negative bisignate ICD band at peptide to polynucleotide ratio of 0.1 to 1.7 by CD titration method
[46] = Binding affinity to poly(rA).(rU) RNA duplex (unknown origin) in pH 7.4 sodium cacodylate buffer assessed as positive-negative bisignate ICD band at peptide to polynucleotide ratio of 0.1 to 1.7 by CD titration method
Bos taurus [47] = organism: Bos taurus; assay: Binding affinity to calf thymus duplex DNA in pH 7.4 sodium cacodylate buffer assessed as positive-negative bisignate ICD band at peptide to polynucleotide ratio of 0.2 to 1.3 by CD titration method

With `N=C(N)NCCC[C@H](NC(=O)[C@H](CCCNC(=N)N)NC(=O)[C@H](CCCNC(=N)N)NC(=O)[C@@H](N)CCCNC(=N)N)C(N)=O` (H-RRRR-NH2) the Activity [1] was “Not Active”, the log Ks [2] was 5.42 to 5.5 and the solubility [3] was “Soluble”. For the same molecule, the ΔTm [4] was 12.7 °C, the Stability [5] was “Stable” and the ΔTm [6] was 4.1 °C. The log Ks [7] was 5.54 to 5.6, the log Ks (Bos taurus [8]) was 5.33 to 5.6 and the ΔTm [9] was 5 °C. The log Ks [10] was 5.44 to 5.5, the ΔTm [11] was 15.3 °C and the ΔTm (Bos taurus [12]) was 2.7 °C. The ΔTm (Bos taurus [13]) was 1.9 °C and the Activity [14] was “Active”.

In the case of `N=C(N)NC(=O)c1ccc(C(=O)NCCCC[C@H](NC(=O)[C@H](CCCCN)NC(=O)[C@H](CCCCN)NC(=O)[C@@H](N)CCCCN)C(N)=O)[nH]1` (H-KKKK(Pyrrole2CO(5-CO-guanidino))-NH2), the Activity [1] is reported as “Not Active”, the solubility [3] is reported as “Soluble” and the ΔTm [4] is reported as 7.9 °C. For the same molecule, the Stability [5] was “Stable”, the Activity (Bos taurus [15]) was “Active” and the ΔTm [6] was 3.3 °C. The log Ks (Bos taurus [16]) was 6.1, the Activity [17] was “Active” and the Activity [18] was “Active”. For the same molecule, the Activity [19] was “Active”, the ΔTm [9] was 4.9 °C and the Activity [20] was “Active”. The Activity [21] was “Active”, the Activity [22] was “Active” and the Activity (Bos taurus [23]) was “Active”. The ΔTm [11] was 11.1 °C, the ΔTm (Bos taurus [12]) was 2.6 °C and the Activity (Bos taurus [24]) was “Active”. The Activity [25] was “Active”, the log Ks [26] was 5.5 and the log Ks [27] was 6.4. It also gave a ΔTm (Bos taurus [13]) of 0.5 °C and a log Ks [28] of 5.3.

In the case of `N=C(N)NC(=O)c1ccc(C(=O)NCCCC[C@H](NC(=O)[C@H](CCCCNC(=O)c2ccc(C(=O)NC(=N)N)[nH]2)NC(=O)[C@H](CCCCNC(=O)c2ccc(C(=O)NC(=N)N)[nH]2)NC(=O)[C@@H](N)CCCCNC(=O)c2ccc(C(=O)NC(=N)N)[nH]2)C(N)=O)[nH]1` (H-K(Pyrrole2CO(5-CO-guanidino))K(Pyrrole2CO(5-CO-guanidino))K(Pyrrole2CO(5-CO-guanidino))K(Pyrrole2CO(5-CO-guanidino))-NH2), the Activity [29] is reported as “Active”, the Activity [1] is reported as “Not Active” and the solubility [3] is reported as “Soluble”. The ΔTm [4] was 2.1 °C, the Activity [30] was “Active” and the Stability [5] was “Stable”. The ΔTm [6] was 0.6 °C, the log Ks (Bos taurus [16]) was 5.4 and the Activity [31] was “Active”. For the same molecule, the Activity [32] was “Active”, the Activity [33] was “Active” and the Activity (Bos taurus [34]) was “Active”. The ΔTm [9] was 0.5 °C, the Activity [35] was “Active” and the Activity (Bos taurus [36]) was “Active”. For the same molecule, the Activity [37] was “Active”, the ΔTm [11] was 2.4 °C and the ΔTm (Bos taurus [12]) was 0 °C. For the same molecule, the log Ks [26] was 5.6, the Activity [38] was “Active” and the log Ks [27] was 7.3. The ΔTm (Bos taurus [13]) was 0 °C, the Activity [39] was “Active” and the log Ks [28] was 7.

With `N=C(N)NC(=O)c1ccc(C(=O)NCCCC[C@H](NC(=O)[C@@H](N)CCCCNC(=O)c2ccc(C(=O)NC(=N)N)[nH]2)C(N)=O)[nH]1` the Activity [1] was “Not Active”, the solubility [3] was “Soluble” and the Stability [5] was “Stable”. The log Ks (Bos taurus [16]) was 4.9, the Activity (Bos taurus [40]) was “Active” and the Activity [41] was “Active”. The Activity [42] was “Active”, the Activity [43] was “Active” and the log Ks [26] was 4.6. For the same molecule, the log Ks [28] was 3.7.

In the case of `N=C(N)NC(=O)c1ccc(C(=O)NCCCC[C@H](NC(=O)[C@H](CCCCNC(=O)c2ccc(C(=O)NC(=N)N)[nH]2)NC(=O)c2ccc(C(=O)NC(=N)N)[nH]2)C(N)=O)[nH]1`, the Activity [1] is reported as “Not Active”, the solubility [3] is reported as “Soluble” and the Stability [5] is reported as “Stable”. The log Ks (Bos taurus [16]) was 4.6, the Activity [44] was “Active” and the Activity [45] was “Active”. For the same molecule, the Activity [46] was “Active”, the Activity (Bos taurus [47]) was “Active” and the log Ks [26] was 4.8. For the same molecule, the log Ks [27] was 5.2 and the log Ks [28] was 4.2.

From ChEMBL document CHEMBL3992554, “Incorporation of arginine mimetic residue into peptides for recognition of double stranded nucleic acid structure: Binding and aggregation studies” (Bioorg Med Chem, 2017)
